Like-named read-outs stand apart in the source and are kept apart here.
Test system: Bacterial Pool
Experiment: Dow time-kill test in pH 7.4 hand dish-washing liquid, with synergy index (Kull)
Format: cell-based
Settings: for Concentration required to achieve >=4 Log bacterial counts reduction of tested biocides: 37° C., pool of seven bacteria 1×10^6~1×10^7 CFU/ml in pH 7.4 hand dish-washing liquid, active ingredient basis, unit ppm from b8, not given

| Structure (SMILES) | Concentration required to achieve >=4 Log bacterial counts reduction of tested biocides (24 h) | Concentration for >=4 log bacterial kill (Table 4, Bacterial Pool, 24 hours, glutaraldehyde alone (QA) or in the mixture (Qa), read-out: Minimum Inhibitory Concentration (ppm) Glut) | Minimum Inhibitory Concentration (ppm) Glut (Table 5, Bacterial Pool, 24 hours, glutaraldehyde alone (QA) or in the mixture (Qa)) | Concentration for >=4 log bacterial kill (24 h, read-out: Minimum Inhibitory Concentration (ppm) SOPP) | Minimum Inhibitory Concentration (ppm) SOPP (Table 5, Bacterial Pool, 24 hours, SOPP alone (QB) or in the mixture (Qb)) |
| --- | --- | --- | --- | --- | --- |
| O=CCCCC=O [Glutaraldehyde, Pentane-1,5-dial] | 100 ppm | 100 µg/mL | 100 ppm |  |  |
| Oc1ccccc1-c1ccccc1.[Na] [SOPP alone, sodium orthophenylphenol] | 358.5 ppm |  |  | 358 µg/mL | 358.5 ppm |

Source: patent publication US20180116216A1, “MICROBICIDAL COMPOSITION CONTAINING GLUTARALDEHYDE AND ORTHOPHENYLPHENOL” (Dow Global Technologies LLC, priority 2015, published 2018)
